What all share (assay): relative viability (nuclei count vs DMSO), 5 days (fraction); higher = more cells survive
Compound in assay [1]: CCN1CCC(CC1)N2C=C(N=N2)CNC3=CC4=C(C(=CN=C4C(=C3)Cl)C#N)NC5=CC(=C(C=C5)F)Cl [KIN001-266] + CC1(C)CCC(c2ccc(Cl)cc2)=C(CN2CCN(c3ccc(C(=O)NS(=O)(=O)c4ccc(N[C@H](CCN5CCOCC5)CSc5ccccc5)c(S(=O)(=O)C(F)(F)F)c4)cc3)CC2)C1 [Navitoclax] (partner 0.5 µM)
An outline of the steps:
(§1)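 For relative viability, nuclei counts in treated wells were divided by those in vehicle wells. Lung cancer cell lines had been pin-tool dosed in 1536-well plates the day after seeding and cultured for 5 days, then fixed and stained in one step (final 0.05% Triton X-100, 1% formaldehyde, 1 ug/ml Hoechst) and imaged at 4×. Doses were one drug alone or a fixed anchor-drug dose plus five library-drug doses (not always all listed) in √10 steps, and values are duplicate-plate medians.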

Compound in assay [2]: CCN1CCC(CC1)N2C=C(N=N2)CNC3=CC4=C(C(=CN=C4C(=C3)Cl)C#N)NC5=CC(=C(C=C5)F)Cl [KIN001-266] + C[C@@H](Oc1cc(-c2cnn(C3CCNCC3)c2)cnc1N)c1c(Cl)ccc(F)c1Cl [Crizotinib] (partner 1 µM)
An outline of the steps: as §1

Compound in assay [3]: CCN1CCC(CC1)N2C=C(N=N2)CNC3=CC4=C(C(=CN=C4C(=C3)Cl)C#N)NC5=CC(=C(C=C5)F)Cl [KIN001-266] + O=C(CCCCCCC(=O)Nc1ccccc1)NO [Vorinostat] (partner 1 µM)
An outline of the steps:
as §1

Compound in assay [4]: CCN1CCC(CC1)N2C=C(N=N2)CNC3=CC4=C(C(=CN=C4C(=C3)Cl)C#N)NC5=CC(=C(C=C5)F)Cl [KIN001-266] + Cc1nc(Nc2ncc(C(=O)Nc3c(C)cccc3Cl)s2)cc(N2CCN(CCO)CC2)n1 [Dasatinib] (partner 0.075 µM)
An outline of the steps: as §1

Our source for the relative viability values is the supplement of paper PMC10307832.

For the cell line NCI-H1299, the relative viability in assay [1] (first compound 0.08 µM) stood at 1.04; in assay [1] (first compound 0.253 µM) it was 1.04; in assay [1] (first compound 0.8 µM), 0.995; in assay [1] (first compound 2.53 µM) it was 1.01; in assay [1] (first compound 8 µM), 0.897; in assay [2] (first compound 0.08 µM), 0.946. Moreover, the relative viability in assay [2] (first compound 0.253 µM) was found to be 0.921; in assay [2] (first compound 0.8 µM), 0.941; in assay [2] (first compound 2.53 µM), 0.87; in assay [2] (first compound 8 µM) it was 0.817.
Regarding NCI-H1648, the relative viability in assay [3] (first compound 0.08 µM) turned out to be 0.438; in assay [3] (first compound 0.253 µM), 0.502; in assay [3] (first compound 0.8 µM), 0.515; in assay [3] (first compound 2.53 µM), 0.453; in assay [3] (first compound 8 µM), 0.422.
Take LCLC-103H: the relative viability in assay [4] (first compound 0.08 µM) came out at 0.538; in assay [4] (first compound 0.253 µM) it was 0.494; in assay [4] (first compound 0.8 µM) it was 0.436; in assay [4] (first compound 2.53 µM), 0.519; in assay [4] (first compound 8 µM), 0.452; in assay [3] (first compound 0.08 µM) it was 0.82. Moreover, the relative viability in assay [3] (first compound 0.253 µM) stood at 0.84; in assay [3] (first compound 0.8 µM), 0.762; in assay [3] (first compound 2.53 µM), 0.843; in assay [3] (first compound 8 µM) it was 0.685; in assay [2] (first compound 0.08 µM), 1.05; in assay [2] (first compound 0.253 µM), 1.06. Besides, the relative viability in assay [2] (first compound 0.8 µM) turned out to be 1.01; in assay [2] (first compound 2.53 µM) it was 1.02; in assay [2] (first compound 8 µM) it was 0.927.
Regarding SW 900, the relative viability in assay [4] (first compound 0.08 µM) was 0.753; in assay [4] (first compound 0.253 µM) it was 0.491; in assay [4] (first compound 0.8 µM) it was 0.544; in assay [4] (first compound 2.53 µM) it was 0.764; in assay [4] (first compound 8 µM) it was 0.507; in assay [3] (first compound 0.08 µM), 0.557. For the same cell line, the relative viability was found to be 0.549 in assay [3] (first compound 0.253 µM), 0.466 in assay [3] (first compound 0.8 µM), 0.426 in assay [3] (first compound 2.53 µM) and 0.319 in assay [3] (first compound 8 µM).
Consider IA-LM, for which the relative viability was determined as 0.948 in assay [1] (first compound 0.08 µM); 0.619 in assay [1] (first compound 0.253 µM); 0.731 in assay [1] (first compound 0.8 µM); 0.935 in assay [1] (first compound 2.53 µM); 0.561 in assay [1] (first compound 8 µM); 0.932 in assay [3] (first compound 0.08 µM). The relative viability stood at 0.966 in assay [3] (first compound 0.253 µM); 0.971 in assay [3] (first compound 0.8 µM); 1.01 in assay [3] (first compound 8 µM); 0.885 in assay [2] (first compound 0.08 µM); 0.748 in assay [2] (first compound 0.253 µM); 0.693 in assay [2] (first compound 0.8 µM). In addition, the relative viability turned out to be 0.753 in assay [2] (first compound 2.53 µM) and 0.585 in assay [2] (first compound 8 µM).
Regarding NCI-H1563, the relative viability was 0.468 in assay [4] (first compound 0.08 µM); 0.524 in assay [4] (first compound 0.253 µM); 0.447 in assay [4] (first compound 0.8 µM); 0.458 in assay [4] (first compound 2.53 µM); 0.553 in assay [4] (first compound 8 µM); 0.877 in assay [2] (first compound 0.08 µM). Besides, the relative viability in assay [2] (first compound 0.253 µM) is 0.799; in assay [2] (first compound 0.8 µM) it was 0.95; in assay [2] (first compound 2.53 µM), 0.852; in assay [2] (first compound 8 µM), 0.879.
Consider HCC-44, for which the relative viability in assay [1] (first compound 0.08 µM) was 1.03; in assay [1] (first compound 0.253 µM) it was 1.08; in assay [1] (first compound 0.8 µM), 0.946; in assay [1] (first compound 2.53 µM), 1.06; in assay [1] (first compound 8 µM), 1.03; in assay [3] (first compound 0.08 µM), 1.15. Further, the relative viability in assay [3] (first compound 0.253 µM) worked out at 1.09; in assay [3] (first compound 0.8 µM), 1.04; in assay [3] (first compound 2.53 µM) it was 1.14; in assay [3] (first compound 8 µM), 1.11; in assay [2] (first compound 0.08 µM), 0.812; in assay [2] (first compound 0.253 µM), 0.785. In addition, the results for the relative viability in assay [2] (first compound 0.8 µM), in assay [2] (first compound 2.53 µM) and in assay [2] (first compound 8 µM) were 0.754, 0.797 and 0.743, respectively.
